Measured values as given in patent publication US20110065675A1, “AZO DYE RELATED SMALL MOLECULE MODULATORS OF PROTEIN-PROTEIN INTERACTIONS” (University of Miami, priority 2008, published 2011).
Read-outs that look alike come from different tables or passages of the source.

Tests used:
[1] = biological target: T1, mouse CD40/CD154 (mCD40:mCD154) (Mus musculus, UniProt P27548); test: Murine CD40/CD154 binding inhibition assay; details: for IC50: cell-free binding, read-out: Mouse CD40/CD154 IC50; for Mouse CD40/CD154 log IC50: log of IC50, cell-free binding
T1 construct: (FLAG-tagged) mCD154 (recombinant mouse CD40L, soluble, Alexis Biochemicals); purchased R&D Systems (mCD40/Fc); Alexis Biochemicals (mCD154)
T1 sequence (P27548 112-260 limits assumed): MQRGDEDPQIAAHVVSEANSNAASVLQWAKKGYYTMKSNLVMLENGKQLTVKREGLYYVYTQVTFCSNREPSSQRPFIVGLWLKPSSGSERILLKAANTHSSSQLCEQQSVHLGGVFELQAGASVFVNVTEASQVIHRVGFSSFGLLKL
Experimental: Compounds of interest were also tested in a murine (mouse) model similar to the human one with murine CD40 and CD154 replacing the corresponding human proteins. This serves as additional confirmation of the in vitro inhibitory potential of these compounds, and it was considered important because mouse models are likely to be used as the first in vivo tests. […] The experimental setup used was similar to the one described above, but using mCD40 (recombinant mouse CD40/TNFRSF5/Fc Chimera, soluble, R&D Systems) and (FLAG-tagged) mCD154 (recombinant mouse CD40L, soluble, Alexis Biochemicals). This time, however, a higher concentration of CD154 ligand had to be employed to obtain adequate signals, and after a number of calibration tests, mCD40 coating at 0.3125 μg/mL with mCD154 (mCD40L) at 1.1212 μg/mL range was selected to be used to screen the inhibiting activity of various compounds.
The experiments confirmed that the murine anti-CD154 monoclonal antibody (Taconic, MR1) was active in this system at the expected concentration (˜1 nM range), the human antibody was not, and vice versa, the human mAb was active in the human system, but not in the mouse system. The mouse system provided a similar range of activity with some (up to approximately five-fold) changes in activities compared to that seen in the human system (FIG. 2) (Table 1).

[2] = biological target: T2, human CD40/CD154 (Homo sapiens, UniProt P29965); test: Human CD40/CD154 binding inhibition assay (cell-free, plate-based)
T2 construct: CD154 (soluble human, FLAG-tagged, recombinant from Alexis Biochemicals; MW=18 kDa); purchased Alexis Biochemicals
T2 sequence (P29965 113-261 limits assumed): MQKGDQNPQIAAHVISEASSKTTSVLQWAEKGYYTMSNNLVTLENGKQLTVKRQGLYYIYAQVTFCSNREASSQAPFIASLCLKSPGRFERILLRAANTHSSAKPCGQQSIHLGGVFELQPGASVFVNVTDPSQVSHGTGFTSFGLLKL
Experimental: A 96-well plate-based cell-free in vitro binding inhibition assay, which is a modification of an assay described in U.S. Pat. No. 7,173,046, incorporated by reference in its entirety, has been developed and used for activity screening. Briefly, CD40 is coated at a preselected concentration, and binding of (FLAG-tagged) CD154 is measured by reacting with secondary antibody and using TMB liquid substrate system as a substrate for horseradish peroxidase for reading at 450 nm. The detailed procedure is as follows: Microtiter plates (Nunc F MaxiSorp) were coated with […] of CD40: Fc (human:Fc human, recombinant from Alexis Biochemicals; MW=54 kDa) diluted in PBS pH 7.2 at a preselected concentration of 0.3125 μg/mL. Plates were covered with plate sealer and stored overnight at 4° C. The liquid was removed from the plates and blotted dry. Plates were blocked by washing once with approx. 300 μL/well of Blocking Solution (PBS pH 7.2, 0.05% Tween-20, 1% BSA) and incubated with the same solution for 1 hour at room temperature (RT) or at 4° C. overnight. Coated plates were washed three times with Washing Solution (PBS pH 7.4, 0.05% Tween-20) and blotted dry. A preselected dilution of CD154 (soluble human, FLAG-tagged, recombinant from Alexis Biochemicals; MW=18 kDa) of 0.0087500875 μg/mL range was prepared in 100 mM HEPES, 0.005% BSA pH 7.2. Binding was carried out by adding 100 μL of this CD154 dilution/well and incubating at RT in the presence of test compounds (or blank as negative control). After incubation, the plates were washed with Washing Solution and blotted dry. Bound CD154 was detected with 200 μL/well of secondary antibody mAb ANTI-FLAG M2—Peroxidase Conjugate (anti-FLAG M2-peroxidase HRP conjugate; Sigma-Aldrich) diluted 1:40,000 in Washing Solution. After incubation, the plates were washed and blotted dry. 200 μL/well of the HR-Peroxidase substrate TMB (3,3′,5,5′-tetramethylbenzidine; Sigma-Aldrich) were added, and the plates were incubated for approximately 30 minutes in the dark. The reaction was stopped with 0.5 M H2SO4 and read at 450 nm. All conditions were tested in at least three independent experiments in duplicate or triplicate per plates. Data were normalized and fitted with standard log inhibitor vs. response models using GraphPad Prism 5 to establish median inhibitory ICso values.
A representative result using the monoclonal anti-human CD154 antibody (R&D Systems, monoclonal anti-human CD40 ligand/TNFSF5 antibody, MAB617; MW≈150 kDa used) as positive control is shown in FIG. 1.
Binding inhibition assays with this system provided consistent and well-reproducible results, as FIG. 1 (bottom), focusing on the concentration range of their activities, illustrates. […] The effect of DMSO, which was used as the diluting solvent for the non-water-soluble compounds and is a standard solvent in HTS assays, on the integrity of the assay has been examined. DMSO concentrations above 10% interfere with the binding assay, but concentrations below 3% have no effect. […] Because 5 or 10 mM stock solutions were used, all IC50 values below 250 μM can be considered as unaffected by DMSO.

[3] = biological target: human TNF-R1/TNFα (Homo sapiens, UniProt P01375+P19438); test: Specificity test: human TNF-R1/TNFα binding inhibition assay; details: for IC50: cell-free binding, read-out: Human TNFR1/TNFα IC50; for Human TNFR1/TNFα log IC50: log of IC50, cell-free binding
From the text: A main concern for the therapeutic applicability of these compounds and of small molecule PPI inhibitors in general is related to their ability to achieve some acceptable degree of selectivity/specificity for the PPI of interest. To identify compounds that show acceptable specificity for the CD40/CD154 system, their ability to inhibit the TNF-R1/TNF-α PPI was investigated since this is particularly relevant as CD154 is part of the TNF superfamily. The experimental setup used was very similar to the one described in Example 1, but using plate-coated TNF-R1 and TNF-α as ligand (with a corresponding anti-TNF-α mAb as positive control). The concentration of TNF-R1 and TNF-α used were 0.6 μg/mL and 0.02 μg/mL, respectively.

[4] = cell-free binding, read-out: Human CD40/CD154 IC50
[5] = cell-free binding, read-out: Human CD40/CD154 IC50 (ug/mL) (converted)
[6] = log of IC50, cell-free binding, read-out: Human CD40/CD154 log IC50 (converted)

Sequence of human TNF-R1/TNFα (P01375 77-233 limits assumed): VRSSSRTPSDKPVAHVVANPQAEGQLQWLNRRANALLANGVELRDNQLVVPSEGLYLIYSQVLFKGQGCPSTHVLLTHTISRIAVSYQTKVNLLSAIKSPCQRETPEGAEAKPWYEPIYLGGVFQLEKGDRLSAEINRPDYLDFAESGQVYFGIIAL
Sequence of human TNF-R1/TNFα (P19438 30-211 limits assumed): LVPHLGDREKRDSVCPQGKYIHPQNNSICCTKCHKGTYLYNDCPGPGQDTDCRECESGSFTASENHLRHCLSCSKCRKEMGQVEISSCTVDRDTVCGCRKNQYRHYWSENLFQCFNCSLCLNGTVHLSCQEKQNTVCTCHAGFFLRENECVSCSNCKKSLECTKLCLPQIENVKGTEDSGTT

| Compound | IC50 [1] [µM] | Mouse CD40/CD154 log IC50 [1] | Human CD40/CD154 IC50 ([2]; cell-free binding) [µg/mL] | IC50 [2, 4] [µM] | Human CD40/CD154 log IC50 ([2]; log of IC50, cell-free binding) | IC50 [3] [µM] | Human TNFR1/TNFα log IC50 [3] | IC50 [2, 5] [µM] | IC50 [2, 6] [µM] |
| --- | --- | --- | --- | --- | --- | --- | --- | --- | --- |
| O=C(Nc1ccc2c(O)c(N=Nc3ccc(N=Nc4ccc(S(=O)(=O)[O-])cc4)cc3)c(S(=O)(=O)[O-])cc2c1)c1ccccc1.[Na+].[Na+] [Direct red 81, direct red 81] | 33.8 | −4.47 | 6.9 | 13.6 | −4.87 | > 1000 | >−3.0 | – | – |
| O=S(=O)([O-])c1cccc(N=Nc2ccc(N=Nc3ccc(Nc4ccccc4)c4c(S(=O)(=O)[O-])cccc34)c3ccccc23)c1.[Na+].[Na+] [Acid blue 113, acid blue 113] | – | – | 0.8 | 1.1 | −5.95 | – | – | – | – |
| Nc1c(N=Nc2cccc([N+](=O)[O-])c2)c(S(=O)(=O)[O-])cc2cc(S(=O)(=O)[O-])c(N=Nc3ccccc3)c(O)c12.[Na+].[Na+] [Acid blue 29, acid blue 29] | – | – | 18.6 | 30.2 | −4.52 | 467 | −3.33 | – | – |
| COc1ccccc1NC(=O)C(N=Nc1ccc(-c2nc3ccc(C)c(S(=O)(=O)[O-])c3s2)cc1S(=O)(=O)[O-])C(C)=O.[Na+].[Na+] (stereo not drawn) [Direct yellow 27, direct yellow 27] | – | – | 1.3 | 1.9 | −5.72 | 42.4 | −4.37 | – | – |
| Nc1ccc2c(O)c(N=Nc3ccc(N=Nc4ccc(N=Nc5cc(S(=O)(=O)[O-])c6cccc(S(=O)(=O)[O-])c6c5)c5ccccc45)c4ccc(S(=O)(=O)[O-])cc34)c(S(=O)(=O)[O-])cc2c1.[Na+].[Na+].[Na+].[Na+] [Direct blue 71, direct blue 71] | – | – | 2.2 | 2.1 | −5.68 | 98.5 | −4.01 | – | – |
| CCOc1ccc(N=Nc2ccc(-c3ccc(N=Nc4c(O)ccc5cc(S(=O)(=O)[O-])cc(S(=O)(=O)[O-])c45)cc3)cc2)cc1.[Na+].[Na+] [Direct red 37, direct red 37] | – | – | 8.8 | 13 | −4.88 | – | – | – | – |
| O=S(=O)([O-])c1cc(S(=O)(=O)[O-])c2c(N=Nc3ccc(N=Nc4ccccc4)cc3)c(O)ccc2c1.[Na+].[Na+] [Brilliant crocein (crocein scarlet MOO), Brilliant crocein, reference compound] | 282 | −3.55 | 92.8 | 141 | −3.85 | – | – | – | – |
| Cc1ccc(S(=O)(=O)Oc2ccc(N=Nc3ccc(-c4ccc(N=Nc5c(O)ccc6cc(S(=O)(=O)[O-])cc(S(=O)(=O)[O-])c56)c(C)c4)cc3C)cc2)cc1.[Na+].[Na+] [Acid red 114, C.I. acid red 114] | – | – | 2.4 | 2.8 | −5.55 | 14.2 | −4.85 | – | – |
| Nc1ccc(N=Nc2ccc(-c3ccc(N=Nc4c(S(=O)(=O)[O-])cc5cc(S(=O)(=O)[O-])c(N=Nc6ccccc6)c(O)c5c4N)cc3)cc2)c(N)c1.[Na+].[Na+] [Chlorazol black (direct black 38), direct black 38] | – | – | 0.9 | 1.1 | −5.95 | – | – | – | – |
| COc1cc(-c2ccc(N=Nc3c(S(=O)(=O)[O-])cc4cc(S(=O)(=O)[O-])cc(N)c4c3O)c(OC)c2)ccc1N=Nc1c(S(=O)(=O)[O-])cc2cc(S(=O)(=O)[O-])cc(N)c2c1O.[Na+].[Na+].[Na+].[Na+] [Direct blue 15, direct blue 15] | – | – | 1.4 | 1.4 | −5.86 | – | – | – | – |
| Nc1c(/N=N/c2ccc(-c3ccc(/N=N/c4cc(S(=O)(=O)O)c5ccccc5c4N)cc3)cc2)cc(S(=O)(=O)O)c2ccccc12 [Congo red] | – | – | – | 5.7 | – | 34.9 | – | 6.13 | – |

The remaining lines, values ahead:

| IC50 [1] [µM] | Mouse CD40/CD154 log IC50 [1] | Human CD40/CD154 IC50 ([2]; cell-free binding) [µg/mL] | IC50 [2, 4] [µM] | Human CD40/CD154 log IC50 ([2]; log of IC50, cell-free binding) | IC50 [3] [µM] | Human TNFR1/TNFα log IC50 [3] | IC50 [2, 5] [µM] | IC50 [2, 6] [µM] | Compound |
| --- | --- | --- | --- | --- | --- | --- | --- | --- | --- |
| 12.7 | −4.90 | 3.5 | 5.5 | −5.26 | 214 | −3.67 | – | – | direct red 13 |
| – | – | – | – | – | – | – | 1.6 | 1.45 | Cc1cc(-c2ccc(/N=N/c3ccc4c(S(=O)(=O)O)cc(S(=O)(=O)O)c(N)c4c3O)c(C)c2)ccc1/N=N/c1ccc2c(S(=O)(=O)O)cc(S(=O)(=O)O)c(N)c2c1O [Evans blue] |
| – | – | 7.0 | 12.8 | −4.89 | – | – | – | – | acid red 188 |
| – | – | – | – | – | – | – | 4.24 | 3.8 | Cc1cc(-c2ccc(/N=N/c3c(S(=O)(=O)O)cc4cc(S(=O)(=O)O)cc(N)c4c3O)c(C)c2)ccc1/N=N/c1c(S(=O)(=O)O)cc2cc(S(=O)(=O)O)cc(N)c2c1O [Trypan blue, trypan blue] |
| – | – | 16.2 | 24.4 | −4.61 | – | – | – | – | direct red 53 |
| – | – | 0.3 | 0.7 | −6.18 | 86 | −4.07 | – | – | Nc1cc(N)c(N=Nc2cccc3c(S(=O)(=O)O)cccc23)cc1N=Nc1cc([N+](=O)[O-])ccc1O.[Na] [Mordant brown 1, mordant brown 1] |
| – | – | 1.4 | 1.6 | −5.80 | – | – | – | – | direct blue 120 |
